Results from the supplement of paper PMC10883282.

Tests used:
Assay in all cases: relative viability vs DMSO control (72 h) (fraction); higher = more viable cells
A204 = test system: A204
Procedure, shortened: (§1)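 ATPLite readings, expressed as percent growth and averaged over up to triplicate wells, provided relative viability. Before reading, sarcoma cell lines seeded in 384-well plates to reach 80–90% confluence received 2.5 µl of serially diluted compound after 24 h, from source plates of 10 mM to 0.0002 mM. Plates were held 72 h at 37 °C, 5% CO2, with 0.1% DMSO as vehicle and a 5 µM positive control. The data were rescaled to 1 for full and 0 for none.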

HS729 = test system: HS729
Procedure, shortened: as §1

KHOS-NP = test system: KHOS-NP
Procedure, shortened: as §1

SW684 = test system: SW684
Procedure, shortened: as §1

SW872 = test system: SW872
Procedure, shortened: as §1

CN(C)C(=O)c1cc2cnc(Nc3ccc(N4CCNCC4)cn3)nc2n1C1CCCC1 [Ribociclib]
relative viability
Details | A204 | HS729 | KHOS-NP | SW684 | SW872
0.00017 µM | 1.07 | 0.88 | 1.08 | 1.16 | 1.03
0.00051 µM | 1.09 | 0.877 | 1.07 | 1.16 | 1.01
0.00152 µM | 1.08 | 0.878 | 1.06 | 1.14 | 1.02
0.00457 µM | 1.09 | 0.893 | 1.07 | 1.15 | 1.02
0.01372 µM | 1.05 | 0.905 | 1.06 | 1.13 | 1.02
0.04115 µM | 1.05 | 0.915 | 1.07 | 1.15 | 0.996
0.1235 µM | 0.967 | 0.928 | 1.07 | 1.15 | 0.959
0.3704 µM | 0.907 | 0.875 | 1.08 | 1.14 | 0.938
1.111 µM | 0.921 | 0.89 | 1.08 | 1.17 | 0.946
3.333 µM | 0.795 | 0.87 | 1.08 | 1.1 | 0.818
10 µM | 0.639 | 0.869 | 1.03 | 1.05 | 0.713

O=C(/C=C\n1cnc(-c2cc(C(F)(F)F)cc(C(F)(F)F)c2)n1)NNc1cnccn1 [Selinexor]
relative viability
Details | A204 | HS729 | KHOS-NP | SW684 | SW872
0.00017 µM | 1.1 | 1.07 | 1.09 | 1.14 | 1.065
0.00051 µM | 1.11 | 1.06 | 1.12 | 1.24 | 1.07
0.00152 µM | 1.08 | 1.05 | 1.131 | 1.23 | 1.075
0.00457 µM | 1.08 | 0.98 | 1.13 | 1.25 | 1.07
0.01372 µM | 0.996 | 0.929 | 1.12 | 1.18 | 1.06
0.04115 µM | 0.884 | 0.835 | 1.05 | 1.17 | 0.989
0.1235 µM | 0.677 | 0.7742 | 0.727 | 0.953 | 0.823
0.3704 µM | 0.441 | 0.741 | 0.238 | 0.885 | 0.752
1.111 µM | 0.299 | 0.676 | 0.184 | 0.819 | 0.537
3.333 µM | 0.218 | 0.602 | 0.0993 | 0.754 | 0.365
10 µM | 0.171 | 0.499 | 0.0794 | 0.686 | 0.306

Cc1cc(F)c(C(=O)Nc2cccc(-c3nncn3C(C)C)n2)cc1-n1cnc(C2CC2)c1 [Selonsertib]
relative viability
Details | A204 | HS729 | KHOS-NP | SW684 | SW872
0.00017 µM | 1.07 | 0.914 | 1.04 | 1.15 | 0.995
0.00051 µM | 1.02 | 0.917 | 1.05 | 1.136 | 1
0.00152 µM | 1.03 | 0.92 | 1.042 | 1.14 | 1.02
0.00457 µM | 1.09 | 0.973 | 1.06 | 1.15 | 1.03
0.01372 µM | 1.07 | 0.936 | 1.06 | 1.2 | 1.03
0.04115 µM | 1.08 | 0.942 | 1.07 | 1.14 | 1.04
0.1235 µM | 1.1 | 0.888 | 1.07 | 1.11 | 1.06
0.3704 µM | 1.07 | 0.933 | 0.911 | 1.12 | 1.05
1.111 µM | 1.01 | 0.875 | 1.06 | 1.1 | 1.08
3.333 µM | 0.802 | 0.94 | 1.02 | 1.13 | 1.07
10 µM | 0.389 | 0.943 | 0.707 | 1.012 | 1.05

Cn1cnc2c(F)c(Nc3ccc(Br)cc3Cl)c(C(=O)NOCCO)cc21 [Selumetinib]
relative viability
Details | A204 | HS729 | KHOS-NP | SW684 | SW872
0.00017 µM | 1.03 | 0.898 | 1.06 | 1.04 | 0.957
0.00051 µM | 1.02 | 0.929 | 1.03 | 1.09 | 0.985
0.00152 µM | 1.01 | 0.869 | 1.04 | 1.06 | 0.951
0.00457 µM | 1.055 | 0.894 | 1.04 | 1.03 | 0.938
0.01372 µM | 0.988 | 0.896 | 1.01 | 1.03 | 0.894
0.04115 µM | 0.977 | 0.902 | 0.965 | 0.973 | 0.758
0.1235 µM | 0.947 | 0.849 | 0.823 | 0.969 | 0.654
0.3704 µM | 0.973 | 0.843 | 0.727 | 0.98 | 0.58
1.111 µM | 0.939 | 0.846 | 0.526 | 0.941 | 0.58
3.333 µM | 0.9367 | 0.82 | 0.351 | 0.84 | 0.562
10 µM | 0.811 | 0.794 | 0.277 | 0.692 | 0.545

CO[C@H]1C[C@@H]2CC[C@@H](C)[C@@](O)(O2)C(=O)C(=O)N2CCCC[C@H]2C(=O)O[C@H]([C@H](C)C[C@@H]2CC[C@@H](OC(=O)C(C)(CO)CO)[C@H](OC)C2)CC(=O)[C@H](C)/C=C(\C)[C@@H](O)[C@@H](OC)C(=O)[C@H](C)C[C@H](C)/C=C/C=C/C=C/1C [Temsirolimus]
relative viability
Details | A204 | HS729 | KHOS-NP | SW684 | SW872
0.00017 µM | 0.925 | 0.909 | 1.05 | 1.06 | 0.85
0.00051 µM | 0.762 | 0.926 | 1.05 | 1.04 | 0.805
0.00152 µM | 0.622 | 0.907 | 1.03 | 0.956 | 0.759
0.00457 µM | 0.551 | 0.931 | 1.044 | 0.919 | 0.682
0.01372 µM | 0.534 | 0.903 | 1.05 | 0.799 | 0.643
0.04115 µM | 0.504 | 0.854 | 1.036 | 0.711 | 0.594
0.1235 µM | 0.476 | 0.811 | 1.04 | 0.752 | 0.569
0.3704 µM | 0.453 | 0.758 | 1 | 0.79 | 0.553
1.111 µM | 0.431 | 0.753 | 0.96 | 0.767 | 0.516
3.333 µM | 0.392 | 0.739 | 0.907 | 0.767 | 0.518
10 µM | 0.334 | 0.388 | 0.0158 | -0.00523 | 0.461
